What all share (type): biochemical
Assay [1] is described as follows: Inhibitory effects on generation of peroxide lipid, methyl linoleate as substrate. The note with it: 100 μl of 500 ppm solution, 89 mg methyl linoleate, 40° C. 18 hours in the dark. The protocol: Each sample shown in Table 1 described above was examined for inhibitory effects on the generation of peroxide lipid, with methyl linoleate as a substrate. Namely, 100 μl of each aqueous solution used in the paragraph (Measurement of radical-scavenging activity) and 89 mg (100 μl) of methyl linoleate were added to a small test tube of 14 mm in inner diameter and well mixed. At the same time, 100 μl of only the solvent for the aqueous solution was added instead of the aqueous solution to prepare a control. The solvents in these mixture solutions were completely removed in a vacuum desiccator using a vacuum pump. The resulting solutions were left in the dark at 40° C. for 18 hours. Next, 5 ml of 0.08% BHT (2,6-di-t-butyl-4-methylphenol)/hexane solution was added thereto. The amount of peroxide generated from methyl linoleate was measured using HPLC Analysis System 2 shown below under HPLC Condition 4. In a method of measuring and evaluating antioxidative activity, the total of HPLC peak area of peroxide lipids (13-hydroperoxide and 9-hydroperoxide) generated from methyl linoleate in the control test section was determined first. This determined value was regarded as 100%. The total HPLC peak area of the peroxide lipids in the test section supplemented with each sample was determined. This determined value was indicated by percentage (%) with respect to the total of HPLC peak area of the control to thereby determine a rate of inhibition against the oxidation of methyl linoleate.
Pump: Shimadzu LC-10AD, System Controller: Shimadzu SCL-10A, Autoinjector: Shimadzu SIL-10A, Detector: Shimadzu SPD-10A (UV spectrophotometric detector), Column Oven: Shimadzu CTO-10A
Column: Develosil ST 60-5 (4.6 i.d.×250 mm), Eluent: n-hexane/1,4-dioxane/isopropylalcohol=98/1/1 (v/v/v), Flow Rate: 1 ml/min, Detection Wavelength: 235 nm

A short description of assay [2]: Measurement of DPPH radical-scavenging activity. The following applies: 500 ppm solution (with vitamin C: each 500 ppm), 100 μl aliquot, 20 minutes room temperature in the dark. As for the experimental part:
Each sample shown in Table 1 described below was examined for DPPH (1,1-diphenyl-2-picrylhydrazyl) radical-scavenging activity. Namely, the lemon glycoside of Comparative Example 1, the eriocitrin of Comparative Example 2, the enzyme-treated aglycon of Test Example 1, or eriodictyol, neoeriocitrin, vitamin C, or α-tocopherol purchased from Funakoshi was dissolved at its concentration of 500 ppm in a solvent to produce an aqueous solution. Then, 100 μl aliquot of the aqueous solution was supplemented with 1 ml of 0.1 M Tris buffer (pH 7.4). The solvent used for α-tocopherol was methanol. Alternatively, each sample described above and vitamin C were dissolved at each concentration of 500 ppm in a solvent to produce an aqueous solution whose 100 μl aliquot was then supplemented with 1 ml of 0.1 M Tris buffer. Subsequently, 2 ml of a DPPH solution (solution obtained by dissolving DPPH at its concentration of 500 μM in ethanol) was added to the solutions and well mixed. The resulting solutions were left at room temperature for 20 minutes in the dark to undergo reaction. The amount of DPPH in each reaction solution (10 μl) was quantified by measurement using HPLC Analysis System 2 described below under HPLC Condition 3. In a method of evaluating radical-scavenging activity, the amount of DPPH remaining in the sample (glycoside and aglycon)-free test section (control) was regarded in advance as 100%. Additionally, the amount of DPPH remaining in the reaction solution supplemented with each sample was measured and indicated by percentage (%) with respect to the amount of DPPH in the control section. Because the radical-scavenging activity of the section supplemented with eriodictyol and vitamin C was almost 100%, the test was conducted again with the amount of the sample reduced to half. Namely, eriodictyol and vitamin C were dissolved at each concentration of 500 ppm in a solvent to produce an aqueous solution whose 50 μl aliquot was then supplemented with 1 ml of 0.1 M Tris buffer. The radical-scavenging activity of the resulting solution was measured as described above. The obtained numeric value was doubled to thereby correct the data. The result is shown in Table 1. <HPLC Analysis System 2> Pump: Shimadzu LC-10AD, System Controller: Shimadzu SCL-10A, Autoinjector: Shimadzu SIL-10A, Detector: Shimadzu SPD-10A (UV spectrophotometric detector), Column Oven: Shimadzu CTO-10A <HPLC Condition 3> Column: TSK-GEL octyl-80Ts (4.6 i.d.×150 mm), Eluent: methanol/water=30/70 (v/v), Flow Rate: 1 ml/min, Detection Wavelength: 517 nm
A general note: The DPPH test is a chemical assay of radical scavenging.

Assay [3] is described as follows: Inhibitory effect on oxidation of biomembrane using liposome (SUV, AAPH, TBA). The note with it: 500 ppm sample in phosphate buffer pH 7.4, AAPH, 535 nm. The protocol: A single compartment liposome (SUV: Small Unilamellar Vesicle) was used as a biomembrane model to evaluate antioxidative power. For preparing SUV, at first, 100 mg of yolk lecithin was supplemented with 1 ml of chloroform and completely dissolved, followed by the complete removal of the chloroform in a short-neck flask. The obtained lipid film was swollen by the addition of 10 ml of 10 mM phosphate buffer (pH 7.4) containing 500 ppm of the lemon glycoside of Comparative Example 1, the eriocitrin of Comparative Example 2, the enzyme-treated aglycon of Test Example 1, or eriodictyol (manufactured by Funakoshi). The resulting mixture was well shaken and completely dispersed with an ultrasonic washing machine. The lipid film swollen by the addition of 10 ml of only the phosphate buffer was tested as a control in the same way. Next, the obtained multilayer liposome solution was bubbled with nitrogen gas for 5 minutes and then sonicated at 180 W for 20 minutes in a strong ultrasonic generator to prepare a small unilamellar vesicle (SUV).
The peroxidation of the SUV thus prepared was forcedly promoted by the addition of AAPH ([…]), a radical initiator, to the SUV. As a result, a peroxide as a primary product is generated in the liposome. Subsequently, as a secondary product such as malondialdehyde is generated during the course of autoxidation. A thiobarbituric acid (TBA) reagent is added thereto to generate a red substance (TBA-positive substance), a reaction product of aldehydes. The degree of coloration thereof was measured with a spectrophotometer at λ=535 nm and used to determine the rate of oxidation of the liposome membrane (%).

The nature of assay [4]: Measurement of rate of elimination of active oxygen (xanthine oxidase / xanthine / nitro blue tetrazolium). The note with it: as printed for α-tocopherol in the active oxygen test. The protocol:
Xanthine oxidase (0.5 ml (5.6 units)) was mixed with 0.3 ml of 1 mM xanthine (manufactured by Wako Pure Chemical Industries), 0.3 ml of 0.25 mM nitro blue tetrazolium (manufactured by Wako Pure Chemical Industries), and 2.3 ml of 0.05 M sodium carbonate buffer (pH 10.2). The xanthine oxidase used was a reagent (manufactured by Wako Pure Chemical Industries) diluted at 100 fold with 0.05 M sodium carbonate buffer. This mixture was supplemented with 0.1 ml (concentration: 1000 ppm) of the lemon glycoside of Comparative Example 1 or the enzyme-treated aglycon of Test Example 1 and incubated. Because blue formazan was produced with a lapse of incubation time, absorbance at λ=560 nm was measured using a spectrophotometer (HITACHI spectrophotometer U2000) after 3 minutes of incubation. A test section without addition of the sample (glycoside and aglycon) was used as control. As a blank test, a sodium carbonate buffer was added instead of the xanthine oxidase to perform the same procedures. A value obtained by subtracting the absorbance of the blank test from the absorbance of the solution supplemented with each sample was divided by the absorbance of the control to thereby determine a rate of elimination of active oxygen (%).

Regarding `C[C@@H]1O[C@@H](OC[C@H]2O[C@@H](Oc3cc(O)c4c(c3)O[C@H](c3ccc(O)c(O)c3)CC4=O)[C@H](O)[C@@H](O)[C@@H]2O)[C@H](O)[C@H](O)[C@H]1O` [Eriocitrin, eriocitrin], the “Rate of inhibition against oxidation of methyl linoleate” value (“Rate of inhibition” below) in assay [1] is listed as 8.00%. In assay [2], the DPPH radical-scavenging activity came to 28.64%. Further, the “rate of oxidation of the liposome membrane” value in assay [3] is recorded as 9.52%.
For `O=C1C[C@@H](c2ccc(O)c(O)c2)Oc2cc(O)cc(O)c21` [Eriodictyol, eriodictyol], in that order: 20.99%, 75.70% and 6.80%.
Regarding `C[C@@H]1O[C@@H](O[C@H]2[C@H](Oc3cc(O)c4c(c3)O[C@H](c3ccc(O)c(O)c3)CC4=O)O[C@H](CO)[C@@H](O)[C@@H]2O)[C@H](O)[C@H](O)[C@H]1O` [Neoeriocitrin, neoeriocitrin], in assay [1], the “Rate of inhibition” value is 9.24%. The same compound registered a DPPH radical-scavenging activity in assay [2] of 30.70%.
In the case of `O=C1O[C@H]([C@@H](O)CO)C(O)=C1O` [Vitamin C, ascorbic acid], the “Rate of inhibition” value in assay [1] came out at 8.32%. The compound further registered a DPPH radical-scavenging activity in assay [2] of 14.00%.
With `Cc1c(C)c2c(c(C)c1O)CC[C@@](C)(CCC[C@H](C)CCC[C@H](C)CCCC(C)C)O2` [α-tocopherol], in assay [1], the “Rate of inhibition” value was found to be 16.97%. The rate of oxidation in assay [4] was 238.2%. The DPPH radical-scavenging activity in assay [2] is 44.82%. In addition, the “rate of oxidation of the liposome membrane” value in assay [3] is 76.87%.

Values taken from US8247002B2, “Antioxidant material, anti-deterioration agent and food or beverage” (Pokka Corporation, priority 2004, dated 2012).
